Where two headings read alike, the source gives them in different places.
How the values were obtained:
DRB1*0405 (DR4w15) = biological target: T1, DRB1*0405 (DR4w15) (Homo sapiens, UniProt P01903+P01911, A100R/A169T/D86S/F76Y/I96L/K127E/L162R/M171V/N62H/P40V/Q125Y/R42H/S133A/S149N/S66Y/V115G/V209L/W38E); assay: biochemical; assay type: binding
T1 construct: Epstein-Barr virus (EBV) transformed homozygous cell lines were used as sources; endogenous in cells; host or cells: KT3 (EBV-transformed homozygous B cell line)

DRB1*0802 (DR8w2) = biological target: T2, DRB1*0802 (DR8w2) (Homo sapiens, UniProt P01903+P01911, A100R/A103L/A169T/F76Y/H45Y/I96F/K41T/L162R/M171V/P40S/Q125H/Q178H/Q39Y/Q99D/R218S/R42G/S66Y/V115G/W38E); assay: biochemical; assay type: binding
T2 construct: Epstein-Barr virus (EBV) transformed homozygous cell lines were used as sources; endogenous in cells; host or cells: OLL (EBV-transformed homozygous B cell line)

DRB1*0401 (DR4w4) = biological target: T3, DRB1*0401 (DR4w4) (Homo sapiens, UniProt P01903+P01911, A100K/A169T/F76Y/I96L/K127E/L162R/M171V/N62H/P40V/Q125Y/R42H/S133A/S149N/S66Y/V115G/V209L/W38E); assay: biochemical; assay type: binding
T3 construct: Epstein-Barr virus (EBV) transformed homozygous cell lines were used as sources; endogenous in cells; host or cells: PREISS (EBV-transformed homozygous B cell line)

DRB1*1201 (DR5w12) = biological target: T4, DRB1*1201 (DR5w12) (Homo sapiens, UniProt P01903+P01911, A100R/A169T/D57E/D86V/F55L/H45Y/K41T/L162R/M171V/P40S/Q125H/Q178H/Q39Y/Q99D/R42G/S66L/T262R/V114A/V67L/W38E/Y59H/Y61H/Y89S); assay: biochemical; assay type: binding
T4 construct: Epstein-Barr virus (EBV) transformed homozygous cell lines were used as sources; endogenous in cells; host or cells: Herluf (EBV-transformed homozygous B cell line)

DRB1*1101 (DR5w11) = biological target: T5, DRB1*1101 (DR5w11) (Homo sapiens, UniProt P01903+P01911, A100R/A169T/A87E/I96F/K41T/L162R/M171V/P40S/Q125H/Q178H/Q39Y/Q99D/R42S/S66Y/T262R/V115G/W38E); assay: biochemical; assay type: binding
T5 construct: Epstein-Barr virus (EBV) transformed homozygous cell lines were used as sources; endogenous in cells; host or cells: SWEIG (EBV-transformed homozygous B cell line)

DRB1*0301 (DR3w17) [1] = biological target: T6, DRB1*0301 (DR3w17) (Homo sapiens, UniProt P01903+P01911, A100K/A102G/A103R/A169T/F55Y/I96L/K41T/L162R/M171V/P40S/Q125H/Q178H/Q39Y/R42S/S66N/T106N/T262R/W38E/Y61H); conditions: read-out: Binding Capacity (IC 50% nM) Other Alleles DR3
DRB1*0301 (DR3w17) [2] = biological target: T6, DRB1*0301 (DR3w17); assay: biochemical
DRB1*0101 (DR1) = biological target: T7, DRB1*0101 (DR1) (Homo sapiens, UniProt P01903+P01911, A100R/D57E/F55L/F60I/F76Y/I96L/L162R/M171V/P40L/Q125E/R42F/V115G/Y59C); assay: biochemical; assay type: binding; conditions: Binding Capacity (IC 50% nM) DR1,4,7 DRB1
T7 construct: Epstein-Barr virus (EBV) transformed homozygous cell lines were used as sources; endogenous in cells; host or cells: LG2 (EBV-transformed homozygous B cell line)

DRB1*1501 (DR2w2b) = biological target: T8, DRB1*1501 (DR2w2b) (Homo sapiens, UniProt P01903+P01911); assay: biochemical; assay type: binding
T8 construct: expressed in transfected cells; host or cells: transfected fibroblasts L466.1

DRB1*0901 (DR9) = biological target: T9, DRB1*0901 (DR9) (Homo sapiens, UniProt P01903+P01911, A100R/A103E/D57H/D86V/F55Y/F60I/F76Y/I96F/K127E/L162R/M171V/P40D/Q125H/Q99R/R33Q/R42F/S133A/S66N/T210M/V115G/W38K/Y107V/Y59G/Y89S); assay: biochemical; assay type: binding; conditions: Binding Capacity (IC 50% nM) Other Alleles DR9
T9 construct: Epstein-Barr virus (EBV) transformed homozygous cell lines were used as sources; endogenous in cells

DRB1*1302 (DR6w19) = biological target: T10, DRB1*1302 (DR6w19) (Homo sapiens, UniProt P01903+P01911, A100E/A169T/K41T/L162R/M171V/P40S/Q125H/Q178H/Q39Y/Q99D/R42S/S66N/T262R/V115G/W38E/Y61H); assay: biochemical; assay type: binding; conditions: Binding Capacity (IC 50% nM) Other Alleles DR6w19
T10 construct: Epstein-Barr virus (EBV) transformed homozygous cell lines were used as sources; the source of Class II molecules the EBV transformed homozygous cell line H0301; endogenous in cells; host or cells: H0301 (EBV-transformed homozygous B cell line)

DRB1*0701 (DR7) = biological target: T11, DRB1*0701 (DR7) (Homo sapiens, UniProt P01903+P01911, A100R/A102G/A103Q/D57E/D86V/E43K/F76Y/K127E/L162R/M171V/P40G/Q125H/Q99D/R33Q/R42Y/R54Q/S133A/S66F/T210M/V115G/Y107V/Y59L/Y89S); assay: biochemical; assay type: binding
T11 construct: Epstein-Barr virus (EBV) transformed homozygous cell lines were used as sources; endogenous in cells; host or cells: PITOUT (EBV-transformed homozygous B cell line)

DRB5*0101 (DR2w2a) = biological target: T12, DRB5*0101 (DR2w2a) (Homo sapiens, UniProt P01903+Q30154); assay: biochemical; assay type: binding
T12 construct: Epstein-Barr virus (EBV) transformed homozygous cell lines were used as sources; endogenous in cells; host or cells: GM3107 (EBV-transformed homozygous B cell line)

[3] = read-out: Binding Capacity (IC 50% nM) Other Alleles DR4w15
[4] = read-out: Binding Capacity (IC 50% nM) Other Alleles DR8w2
[5] = Binding Capacity (IC50% nM) DR4w4
[6] = Binding Capacity (IC50% nM) DR5w12
[7] = read-out: Binding Capacity (IC 50% nM) Other Alleles DR5w12
[8] = Binding Capacity (IC50% nM) DR5w11
[9] = read-out: Binding Capacity (IC 50% nM) Other Alleles DR5w11
[10] = Binding Capacity (IC50% nM) DR3
[11] = Binding Capacity (IC50% nM) DR2w2b
[12] = read-out: Binding Capacity (IC 50% nM) Other Alleles DR2w2b
[13] = Binding Capacity (IC 50% nM) Other Alleles DR8w2
[14] = Binding Capacity (IC 50% nM) Other Alleles DR2w2b
[15] = Binding Capacity (IC 50% nM) DR1,4,7 DR4w4
[16] = Binding Capacity (IC 50% nM) DR1,4,7 DR7
[17] = Binding Capacity (IC 50% nM) Other Alleles DR2w2a

T5 sequence (P01903 26-254, other chains not shown): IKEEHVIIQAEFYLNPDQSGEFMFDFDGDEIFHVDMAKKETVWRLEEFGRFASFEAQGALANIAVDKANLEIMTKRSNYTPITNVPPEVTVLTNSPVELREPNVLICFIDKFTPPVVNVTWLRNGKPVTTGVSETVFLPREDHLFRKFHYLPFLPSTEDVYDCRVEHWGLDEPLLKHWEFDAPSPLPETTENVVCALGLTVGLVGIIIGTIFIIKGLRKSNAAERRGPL

SMILES	IC50 (DRB1*0405 (DR4w15); [3]) [nM]	IC50 (DRB1*0802 (DR8w2); [4]) [nM]	IC50 (DRB1*0401 (DR4w4); [5]) [nM]	IC50 (DRB1*1201 (DR5w12); [6]) [nM]	IC50 (DRB1*1201 (DR5w12); [7]) [nM]	IC50 (DRB1*1101 (DR5w11); [8]) [nM]	IC50 (DRB1*1101 (DR5w11); [9]) [nM]	IC50 (DRB1*0301 (DR3w17) [1]) [nM]	IC50 (DRB1*0301 (DR3w17) [2]; [10]) [nM]	IC50 (DRB1*0101 (DR1)) [nM]	IC50 (DRB1*1501 (DR2w2b); [11]) [nM]	IC50 (DRB1*1501 (DR2w2b); [12]) [nM]	IC50 (DRB1*0901 (DR9)) [nM]	IC50 (DRB1*1302 (DR6w19)) [nM]	IC50 (DRB1*0802 (DR8w2); [13]) [nM]	IC50 (DRB1*1501 (DR2w2b); [14]) [nM]	IC50 (DRB1*0401 (DR4w4); [15]) [nM]	IC50 (DRB1*0701 (DR7); [16]) [nM]	IC50 (DRB5*0101 (DR2w2a); [17]) [nM]	further results
CC[C@H](C)[C@H](NC(=O)[C@H](CO)NC(=O)[C@H](CO)NC(=O)[C@H](CC(N)=O)NC(=O)[C@@H](NC(=O)[C@@H](NC(=O)[C@H](CC(N)=O)NC(=O)[C@@H](N)Cc1ccccc1)C(C)C)C(C)C)C(=O)NCC(=O)N[C@@H](CC(C)C)C(=O)N[C@H](C(=O)N[C@@H](CCSC)C(=O)N[C@H](C(=O)N[C@@H](CC(C)C)C(=O)N[C@@H](CO)C(=O)O)C(C)C)[C@@H](C)CC [Peptide 27.384]	> 1000	> 1000	> 10000	> 10000	> 1000	> 10000	> 1000	> 1000	> 10000											IC50 (DRB1*0405 (DR4w15); Binding Capacity (IC50% nM) DR4w15): > 10000 nM; IC50 (DRB1*0802 (DR8w2); Binding Capacity (IC50% nM) DR8w2): > 10000 nM; IC50 (DRB1*0401 (DR4w4); read-out: Binding Capacity (IC 50% nM) DR1,4,7 DR4w4): > 1000 nM
CC[C@H](C)[C@H](NC(=O)[C@H](C)NC(=O)[C@H](CC(C)C)NC(=O)[C@H](CCCCN)NC(=O)[C@H](CCCNC(=N)N)NC(=O)[C@@H](N)CCSC)C(=O)N[C@@H](CC(C)C)C(=O)N[C@@H](CO)C(=O)N[C@H](C(=O)N[C@@H](CO)C(=O)N[C@@H](CO)C(=O)N[C@@H](Cc1ccccc1)C(=O)N[C@@H](CC(C)C)C(=O)N[C@@H](Cc1ccccc1)C(=O)N[C@H](C(=O)O)C(C)C)C(C)C [Peptide 27.388]									> 10000	< 1000										
CC(C)C[C@H](NC(=O)CN)C(=O)N[C@@H](C)C(=O)N[C@@H](Cc1ccc(O)cc1)C(=O)N[C@@H](CCCCN)C(=O)N[C@@H](Cc1ccccc1)C(=O)N[C@H](C(=O)N[C@H](C(=O)N1CCC[C@H]1C(=O)NCC(=O)N[C@@H](C)C(=O)N[C@@H](C)C(=O)N[C@H](C(=O)N1CCC[C@H]1C(=O)N[C@@H](Cc1ccc(O)cc1)C(=O)O)[C@@H](C)O)C(C)C)C(C)C [Peptide 1188.32]								> 1000	> 10000		> 10000	> 1000								
CC[C@H](C)[C@H](NC(=O)[C@H](CC(C)C)NC(=O)[C@H](CCCCN)NC(=O)[C@H](CCSC)NC(=O)[C@H](C)NC(=O)[C@H](CC(C)C)NC(=O)[C@@H]1CCCN1C(=O)[C@@H](NC(=O)[C@H](C)NC(=O)[C@H](Cc1c[nH]cn1)NC(=O)[C@H](CC(N)=O)NC(=O)[C@@H](NC(=O)[C@H](Cc1c[nH]c2ccccc12)NC(=O)[C@H](CC(N)=O)NC(=O)[C@@H](N)Cc1c[nH]cn1)C(C)C)C(C)C)C(=O)O [Peptide 1188.34]							> 1000	> 1000		< 1000			< 1000	< 1000	< 1000	< 1000	< 1000	< 1000	< 1000	IC50 (DRB1*0405 (DR4w15); Binding Capacity (IC 50% nM) Other Alleles DR4w15): < 1000 nM; IC50 (DRB1*1201 (DR5w12); Binding Capacity (IC 50% nM) Other Alleles DR5w12): < 1000 nM
CSCC[C@H](NC(=O)[C@H](C)NC(=O)[C@H](CC(C)C)NC(=O)[C@@H]1CCCN1C(=O)[C@@H](NC(=O)[C@H](C)NC(=O)[C@H](Cc1c[nH]cn1)NC(=O)[C@H](CC(N)=O)NC(=O)[C@@H](NC(=O)[C@H](Cc1c[nH]c2ccccc12)NC(=O)[C@H](CC(N)=O)NC(=O)[C@H](Cc1c[nH]cn1)NC(=O)[C@@H](N)CCCNC(=N)N)C(C)C)C(C)C)C(=O)N[C@@H](CCCCN)C(=O)N[C@@H](CC(C)C)C(=O)O [Peptide 1188.45]	> 1000		9	> 10000	> 1000		> 1000			< 1000			< 1000	< 1000	< 1000	< 1000	< 1000	< 1000	< 1000	IC50 (DRB1*0301 (DR3w17) [2]; Binding Capacity (IC 50% nM) Other Alleles DR3): < 1000 nM
CC(C)[C@H](NC(=O)[C@H](Cc1ccccc1)NC(=O)[C@@H](N)CCCCN)C(=O)N[C@H](C(=O)N1CCC[C@H]1C(=O)NCC(=O)N[C@@H](C)C(=O)N[C@@H](C)C(=O)N[C@H](C(=O)N1CCC[C@H]1C(=O)N[C@@H](Cc1ccc(O)cc1)C(=O)N[C@@H](C)C(=O)NCC(=O)N[C@@H](CCC(=O)O)C(=O)N1CCC[C@H]1C(=O)O)[C@@H](C)O)C(C)C [Peptide F107.17]	> 1000	> 1000			> 1000	> 10000	> 1000	> 1000		< 1000	> 10000	> 1000	< 1000	< 1000			< 1000			IC50 (DRB1*0701 (DR7); Binding Capacity (IC50% nM) DR7): > 10000 nM; IC50 (DRB1*0701 (DR7); read-out: Binding Capacity (IC 50% nM) DR1,4,7 DR7): > 1000 nM; IC50 (DRB5*0101 (DR2w2a); Binding Capacity (IC50% nM) DR2w2a): > 10000 nM; IC50 (DRB5*0101 (DR2w2a); read-out: Binding Capacity (IC 50% nM) Other Alleles DR2w2a): > 1000 nM

Source: patent US6413517B1, “Identification of broadly reactive DR restricted epitopes” (Epimmune, Inc., priority 1997, dated 2002)
